Assays:
[1] = tested on: PC-3 prostate cancer cell line; test: MTT anti-proliferative assay, PC-3; type: cell-based; details: 48 h of incubation
Description: (§1) Spirooxindoles 6a–p were evaluated for their anti-proliferative potency towards HepG2 liver cancer and PC-3 prostate cancer cell lines. Both cells lines were cultured as monolayers in DMEM supplemented with 10% foetal bovine serum (FBS), L-glutamine (2 mM), penicillin (100 U/mL) and streptomycin sulphate (100 µg/mL). Then, cells were sub-cultured with trypsine/EDTA solution, counted with haemocytometer and plated onto 96-well plates (5000 cells/well) and left overnight so as to form a semi-confluent monolayer.
(§2) Spirooxindoles 6a–p were tested for their in vitro anti-HCC activity against HepG2 cell line, and for their anti-prostate cancer activity against PC-3 cell line by the use of MTT reduction assay. The anticancer drug Adriamycin was co-assayed as the positive control.

[2] = tested on: HepG2 hepatocellular carcinoma cell line; test: MTT anti-proliferative assay, HepG2; type: cell-based; details: Homo sapiens, 48 h of incubation
Description: as §1, §2

[3] = tested on: HepG2 hepatocellular carcinoma cell line; test: MTT anti-proliferative assay, HepG2; type: cell-based; details: 48 h exposure, phase contrast microscopy
[4] = Ferric reducing antioxidant power (FRAP); details: 593 nm, 30 min at 37 °C
Description: The Benzie and Strain method[33] was adopted to assess the ferric reducing antioxidant power (FRAP) for spirooxindoles 6a–p. Absorbance of mixtures was recorded at 593 nm after incubation for 30 min at 37 °C. FRAP results were expressed as μM Fe^2+ equivalents.
FRAP assay is a widely used antioxidant assay that uses antioxidant substances as reducing agents in a redox-linked colorimetric reaction, wherein Fe^3+ is reduced to Fe^2+ at acidic pH that results in a formation of a coloured ferrous-probe complex from a colourless ferric-probe complex. In this assay, the electron donation capacity (reflecting the electron transfer ability) of the examined compounds is evaluated.
In this study, all spirooxindoles 6a–p herein reported were evaluated for their potential FRAP. The results were expressed as µM Fe^2+ equivalents and presented in Table 6, where the higher µM Fe^2+ equivalents value means higher FRAP and subsequently higher antioxidant capacity.

[5] = tested on: non-tumorigenic human breast MCF-10A cell line; test: Cytotoxicity towards non-tumorigenic MCF-10A cells; type: cell-based
[6] = DPPH radical scavenging assay; details: mean ± SD of three experiments; 30 min, 517 nm
Description: The antioxidant potential of spirooxindoles 6a–p against DPPH˙ was evaluated as per previously described procedures by Brand-Williams et al.[32]. DPPH solution was prepared by dissolving 0.024 g DPPH in methanol (100 mL). In 96-well plates, × μL sample and 200-x μL DPPH solution were added. The plate was incubated for 30 min at room temperature in the dark, and finally, absorbance was recorded at 517 nm wavelength. Ascorbic acid was used as positive control. The percent radical scavenging potential was calculated for each compound via the following equation: Scavenging effect (%) = {(Absorbance of control − Absorbance of sample)/Absorbance of control} × 100.
The DPPH (2,2-diphenyl-1-picrylhydrazyl) radical scavenging activity assay is considered as one of the most common and simple methods for measuring the antioxidant ability to trap free radicals. […] Substances that have the potential to act as electron donors result in reduction of this DPPH radical to the corresponding DPPH2 disclosing their antioxidant potential. The principle of the method relies upon measuring the absorbance of the odd electrons of DPPH at 517 nm. The absorbance decreases, in the presence of free radical scavengers, proportional to the decrease of the DPPH radical concentration.

Row | SMILES | IC50 [1] [µM] | IC50 [2] [µM] | Morphological changes of HepG2 cells [3] | FRAP, µM (Fe^2+ Eq.) [4] | IC50 [5] [µM] | DPPH radical scavenging IC50 [6] [µg/mL]
1 | COc1cccc2c1C(=O)c1c(O)c3c(c(O)c1C2=O)C[C@@](O)(C(=O)CO)C[C@@H]3O[C@H]1C[C@H](N)[C@H](O)[C@H](C)O1 [Adriamycin, reference compound] | 0.62 | 0.12 | – | – | – | –
2 | N#CC1=C(c2ccccc2)Nc2c(c(-c3cccs3)nn2-c2ccccc2)C12C(=O)Nc1ccc(Cl)cc12 (stereo not drawn) [Compound 6e] | 13.5 | 8.4 | cell rounding, shrinkage and monolayer disruption | 10.12 µM (Fe^2+ Eq.) | 69.7 | 36.03 ± 1.37
3 | N#CC1=C(c2ccc(Cl)cc2)Nc2c(c(-c3cccs3)nn2-c2ccccc2)C12C(=O)Nc1ccc(Cl)cc12 (stereo not drawn) [Compound 6h] | > 50 | 19.9 | – | 11.35 µM (Fe^2+ Eq.) | – | 46.29 ± 2.18
4 | COc1ccc(C2=C(C#N)C3(C(=O)Nc4ccc(Br)cc43)c3c(-c4cccs4)nn(-c4ccccc4)c3N2)cc1 (stereo not drawn) [Compound 6k] | 39.1 | 13.2 | – | 8.499 µM (Fe^2+ Eq.) | 136 | 69.25 ± 4.25
5 | COc1ccc2c(c1)C1(C(=O)N2)C(C#N)=C(c2ccc(Cl)cc2)Nc2c1c(-c1cccs1)nn2-c1ccccc1 (stereo not drawn) [Compound 6p] | > 50 | > 50 | – | 11.18 µM (Fe^2+ Eq.) | – | 55.05 ± 3.41
6 | O=C1O[C@H]([C@@H](O)CO)C(O)=C1O [Ascorbic acid, reference compound] | – | – | – | 13.42 µM (Fe^2+ Eq.) | – | 45.89 ± 2.39
7 | COc1ccc2c(c1)C1(C(=O)N2)C(C#N)=C(c2ccccc2)Nc2c1c(-c1cccs1)nn2-c1ccccc1 (stereo not drawn) [Compound 6m] | 24.3 | 30.6 | – | 12.13 µM (Fe^2+ Eq.) | 186 | 28.07 ± 1.63
8 | N#CC1=C(c2ccc(Cl)cc2)Nc2c(c(-c3cccs3)nn2-c2ccccc2)C12C(=O)Nc1ccc(Br)cc12 (stereo not drawn) [Compound 6l] | > 50 | 12.7 | – | 11.59 µM (Fe^2+ Eq.) | – | 41.36 ± 2.17
9 | COc1ccc2c(c1)C1(C(=O)N2)C(C#N)=C(c2ccc(C)cc2)Nc2c1c(-c1cccs1)nn2-c1ccccc1 (stereo not drawn) [Compound 6n] | 42.8 | > 50 | – | 11.58 µM (Fe^2+ Eq.) | – | 46.29 ± 2.52

From PMC7144320, “Antitumor properties of certain spirooxindoles towards hepatocellular carcinoma endowed with antioxidant activity” (Journal of Enzyme Inhibition and Medicinal Chemistry, 2020)
